Where “and” joins values, the source holds several entries; their conditions need not be identical. Equal entries are not always repeated.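 The compound was tested at five concentrations on cells cultured in 96-well plates, with a 48-hour exposure period. GI50: concentration for 50% inhibition of growth.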 Calls of active or inactive are those of the source. No stated cut-off is given here; in the data, active = GI50 up to about 1.1 µM and inactive = higher.
How the values were obtained:
Assay in all cases: NCI tumour cell line growth inhibition, 48 h
SNB-19 = test system: SNB-19
Hs-578T = test system: Hs-578T
OVCAR-8 = test system: OVCAR-8
A549 = test system: A549
OVCAR-4 = test system: OVCAR-4
UO-31 = test system: UO-31
PC-3 = test system: PC-3
SK-OV-3 = test system: SK-OV-3
CAKI-1 = test system: CAKI-1
NCI-H23 = test system: NCI-H23
786-0 = test system: 786-0
OVCAR-3 = test system: OVCAR-3
SF-268 = test system: SF-268
HOP-62 = test system: HOP-62
K562 = test system: K562
EKVX = test system: EKVX
DU-145 = test system: DU-145
SF-295 = test system: SF-295
HL-60 = test system: HL-60

SMILES	GI50 (SNB-19)	GI50 (Hs-578T)	GI50 (OVCAR-8)	GI50 (A549)	GI50 (OVCAR-4)	GI50 (UO-31)	GI50 (PC-3)	GI50 (SK-OV-3)	GI50 (CAKI-1)	GI50 (NCI-H23)	GI50 (786-0)	GI50 (OVCAR-3)	GI50 (SF-268)	GI50 (HOP-62)	GI50 (K562)	GI50 (EKVX)	GI50 (DU-145)	GI50 (SF-295)	GI50 (HL-60)
Oc1c(OCc2nnc(CCCCCCCCc3nnc(COc4ccc5ccccc5c4O)n3Nc3ccccc3)n2Nc2ccccc2)ccc2ccccc12	11.8 µM (inactive)	8.17 µM (inactive)	11.2 µM (inactive)	6.46 µM (inactive)	5.42 µM (inactive)	2.58 µM (inactive)	2.1 µM (inactive)	9.77 µM (inactive)	0.676 µM (active)	8.69 µM (inactive)	13.3 µM (inactive)	8.02 µM (inactive)	10.7 µM (inactive)	0.261 µM (active)	0.515 µM (active)	11.6 µM (inactive)	14.6 µM (inactive)	0.301 µM (active)	
O=C1CCCc2c1c1c(n2Cc2ccccc2)-c2ccccc2C1=O	15.4 µM (inactive)	28.7 µM (inactive)	16.4 µM (inactive)	23 µM (inactive)	14 µM (inactive)	23.7 µM (inactive)	27.4 µM (inactive)	18.8 µM (inactive)	21.1 µM (inactive)	14.9 µM (inactive)	21.6 µM (inactive)	16 µM (inactive)	22.2 µM (inactive)	25.5 µM (inactive)	13.9 µM (inactive)	27.7 µM (inactive)	28.9 µM (inactive)	15.7 µM (inactive)	23.9 µM (inactive)
COC(=O)c1sc(=S)sc1SCc1ccc(CSc2sc(=S)sc2C(=O)OC)cc1	> 100 µM (inactive)	> 100 µM (inactive)	> 100 µM (inactive)	> 100 µM (inactive)	> 100 µM (inactive)	> 100 µM (inactive)	> 100 µM (inactive)	> 100 µM (inactive)	> 100 µM (inactive)	> 100 µM (inactive)	> 100 µM (inactive)	> 100 µM (inactive)	> 100 µM (inactive)	> 100 µM (inactive)	> 100 µM (inactive)	> 100 µM (inactive)	> 100 µM (inactive)	> 100 µM (inactive)	
Cc1nc2cc(F)c(F)cc2[nH]c1=O	> 100 µM (inactive)	77.6 µM (inactive)	> 100 µM (inactive)	> 100 µM (inactive)	> 100 µM (inactive)	> 100 µM (inactive)	> 100 µM (inactive)	> 100 µM (inactive)	> 100 µM (inactive)	> 100 µM (inactive)	> 100 µM (inactive)	> 100 µM (inactive)	> 100 µM (inactive)	> 100 µM (inactive)	> 100 µM (inactive)	67.1 µM (inactive)	> 100 µM (inactive)	> 100 µM (inactive)	> 100 µM (inactive)
Cc1ccc(S(=O)(=O)SC/C=C\CSS(=O)(=O)c2ccc(C)cc2)cc1	34.2 µM (inactive) and 29.6 µM (inactive)	67 µM (inactive)	18.9 µM (inactive) and 13.3 µM (inactive)	31.5 µM (inactive) and 35.7 µM (inactive)		55.2 µM (inactive)	19.9 µM (inactive)	43.5 µM (inactive) and 55.8 µM (inactive)	21.4 µM (inactive) and 18.2 µM (inactive)	16.6 µM (inactive) and 12.4 µM (inactive)	12.2 µM (inactive) and 17.9 µM (inactive)	24.4 µM (inactive) and 16 µM (inactive)	26.3 µM (inactive) and 19.8 µM (inactive)	49.2 µM (inactive) and 35.9 µM (inactive)		> 92.7 µM (inactive) and 53.6 µM (inactive)	16.4 µM (inactive)	19.1 µM (inactive) and 37.7 µM (inactive)	
